Results on two molecules are retold here after publication PMC7613620, “Reaction hijacking of tyrosine tRNA synthetase as a whole-of-life-cycle antimalarial strategy” (Science (New York, N.Y.), 2022).

The structures appear in SMILES notation. Like-named read-outs stand apart in the source and are kept apart here.

Test [1] addresses PfYRS (Plasmodium falciparum, UniProt Q8IAR7). Briefly: biochemical. Type of test: binding. As for the experimental part: (§1) 804 An intron was detected in the PftRNATyr sequence, that was not indicated in PlasmoDB. A T7 RNA
(§2) 805 polymerase promoter sequence was added to the 5’ end of the DNA sequence of P. falciparum and H.
(§3) 806 sapiens tRNATyr. This DNA template and its complementary strand were custom-synthesized by Sigma-
(§4) 807 Aldrich. Two oligonucleotides were annealed at 95°C for 5 min and the double-stranded DNA template
(§5) 808 was used for in vitro transcription. The transcription reaction was incubated at 37°C overnight. The reaction
(§6) 809 mixture consists of template DNA, T7 RNA polymerase and NTP mix as per manufacturer's instructions
(§7) 810 (HiScribe™ T7 Quick High Yield RNA Synthesis Kit, NEB). On the following day, the reaction mixture
(§8) 811 was treated with DNase I at 37°C for 15 min. tRNA was purified using RNA clean-up spin columns
(§9) 812 (Monarch® RNA Cleanup Kit, NEB) to remove contaminants from the transcription reaction.
(§10) 814 Differential scanning fluorimetry (DSF)
(§11) 815 PfYRS and HsYRS at 0.1 mg/ml were incubated with various substrates at 37°C for 1-3 h. PfYRS was
(§12) 816 assayed in 25 mM Tris, pH 8, 150 mM NaCl, 5 mM MgCl2 and 1 mM TCEP. HsYRS was assayed in 50
(§13) 817 mM Tris, pH 7.5, 150 mM NaCl, 50 mM KCl, 5 mM MgCl2 and 1 mM TCEP. SYPRO Orange (Sigma-
(§14) 818 Aldrich; 5,000X concentrate in DMSO) was added to the reaction mixture at a final concentration of 2.5X.
(§15) 819 25 µL of the sample was added into each well of a 96-well qPCR plate (Applied Biosystems). The plate
(§16) 820 was sealed and analysed using StepOnePlus Real-Time PCR system (Applied Biosystems). The samples
(§17) 821 were heated from 20°C to 90°C with a 1% continuous gradient. The thermal unfolding curve was plotted
(§18) 822 as the first derivative curve of the raw fluorescence values. The melting temperature (Tm), defined as the
(§19) 823 peak of the first derivative curve, was used to assess the thermal stability of protein-ligand complexes. KD
(§20) 824 values were calculated from DTm using the equation: ln(KD/[L]) = -131.5 x (∆Tm/Tm,apo) - 1.9, where [L]
(§21) 825 is the concentration of ligand and T is the temperature in Kelvin (40). […]

Test [2] concerns the target PfYRSS234C (Plasmodium falciparum, UniProt Q8IAR7, S234C). In words: biochemical. Type of test: binding. As for the experimental part: as §1, §2, §3, §4, §5, §6, §7, §8, §9, §10, §11, §12, §13, §14, §15, §16, §17, §18, §19, §20, §21
The target of test [3] is T1, HsYRS (Homo sapiens, UniProt P54577).
T1 construct: made in house; host or cells: E. coli BL21(DE3), pET-11a
T1 sequence (P54577 1-364): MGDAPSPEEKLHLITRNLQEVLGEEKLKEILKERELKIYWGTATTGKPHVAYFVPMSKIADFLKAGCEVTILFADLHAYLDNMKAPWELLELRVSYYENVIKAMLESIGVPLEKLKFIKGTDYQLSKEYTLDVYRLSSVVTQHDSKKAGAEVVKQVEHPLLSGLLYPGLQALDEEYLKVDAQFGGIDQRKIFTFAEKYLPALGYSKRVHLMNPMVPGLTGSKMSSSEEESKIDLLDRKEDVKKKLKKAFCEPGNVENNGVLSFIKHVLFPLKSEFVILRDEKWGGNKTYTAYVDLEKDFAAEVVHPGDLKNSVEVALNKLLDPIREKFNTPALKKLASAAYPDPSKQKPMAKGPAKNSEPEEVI
In words: Differential scanning fluorimetry, HsYRS. Format: binding. The protocol: This DNA template and its complementary strand were custom-synthesized by Sigma-
as §7, §16
The thermal unfolding curve was plotted
The melting temperature (Tm), defined as the
Reactions were conducted in 50 mM Tris-
Reactions were conducted in 50 mM Tris-HCL, pH 7.6,

Test [4] has as its system P. falciparum (3D7). Briefly: P. falciparum (3D7) culture growth inhibition, 72 h. Type of test: cell-based, Plasmodium falciparum. The settings on record: Plasmodium falciparum, read-out: Pf3D7 IC50(72h); P. falciparum 3D7, 72 h. The protocol: (1 picture or pasted object on this page, not shown here)
553 Sigma-Aldrich) for 48-72 h. For drug pulse assays, tightly synchronized parasites (1-1.5% parasitemia,
554 0.2% final hematocrit) were added to the plates and incubated for 3 h. Drugs were removed and the
555 parasitemia assessed in the trophozoite stage of the next cycle.
557 Compounds were tested against a range of drug resistant field isolates and laboratory strains using a
558 modified [3H]-hypoxanthine incorporation assay, as previously reported (46). Field isolates 7G8, Cam3.1,
559 Dd2, K1, TM90C2B and NF54 were obtained from MR4 (www.beiresources.org).
561 Mammalian cell culture experiments
562 The HepG2 (Human hepatocyte carcinoma) cell line was procured from ATCC (American Type
563 Culture Collection, Manassas, USA; HB-8065) and viability assessed using Cell Titer-GLO luminescent
564 cell viability assay reagents (Promega, catalogue number: G7570) (47, 48). For the assay, 2000 cells/well
565 were plated in 384-well plates 24 h prior to the experiment and incubated at 37°C in a CO2 incubator. The
566 medium was removed and cells were treated with fresh medium containing either vehicle (0.5% DMSO)
567 or serially diluted test compounds or doxorubicin (1.3 nM to 25 µM) in a final volume of 50 µl/well and
568 further incubated for 72 h at 37°C in a CO2 incubator.
569 were treated with 5 µl of 1% Triton X-100 (final assay conc. 0.1%). Following incubation, 25 µl of medium
570 was discarded and 25 µl of Cell Titer-GLO reagent was added to each well and the plate was kept on a plate
571 shaker for 15 min at 25°C with shaking at 300 rpm. Luminescence signals were measured in a Spectramax
572 M5 reader (Molecular Devices).
574 H1650 is a human lung cancer derived ATG7-null cell line (49) that can be used to assess effects on targets
576 adenocarcinoma; bronchoalveolar carcinoma). Other cells lines used are: H460 (NCI-H460; human lung;
577 carcinoma; large cell lung cancer; ATCC: HTB-177); and HCT116 (human colon; colorectal carcinoma;
578 ATCC: CCL-247; Lot : 5056139). Each of the cell lines was received from the American Type Culture
579 Collection (ATCC) and passaged twice before freezing. Cells were cultured in the presence or absence of
580 inhibitors and cell viability was assessed by comparing the ATP content in compound-treated wells with
581 that in DMSO-treated wells as previously described (11).
583 HeLa cells (human cervical adenocarcinoma; genome sequenced (Garvin Institute, Australia) and verified

The subject of test [5] is PfYRS knockdown line. Briefly: Growth inhibition of aptamer-regulatable PfYRS knockdown line (luciferase, 72 h). Type of test: cell-based, Plasmodium falciparum. To be noted: for IC50: Plasmodium falciparum, read-out: IC50 against the PfYRS knockdown line (control compounds). The source says:
674 Generation and analysis of PfYRS knock-down transfectants
675 A conditional regulatable line for the cytosolic PfYRS (PF3D7_0807900) was generated by integrating the
676 gene regulatable system, TetR-DOZI-RNA aptamer module at the 3'-end of the target gene, in P. falciparum
677 parasites using CRISPR-Cas9 and homology-driven repair (55, 56). A line harbourbing an aptamer-
678 regulatable fluorescent protein (eYFP) integrated in the cg6 locus is used as the control (55). Transfection
679 into parasites was carried out by preloading RBCs with the donor vector as described previously (57).
680 Briefly, 50 μg of purified plasmid DNA was mixed with human RBCs and subjected to 8 square wave
681 electroporation pulses of 365 V for 1 ms each, separated by 0.1 s in a 0.2 cm cuvette. The plasmid DNA
682 preloaded cells were inoculated with NF54 expressing Cas9 and T7 RNA polymerase. […]
696 Stock solutions of ML901, DHA or borrelidin (Cayman Chemicals) were dispensed into 96-well U-bottom
697 BD Falcon™ plates and serially diluted in complete medium to yield final concentrations ranging from 20-
698 0.08 nM. Synchronous ring-stage YRScyt conditional knockdown line and the aptamer-regulatable control
699 line in varying aTc concentrations (high = 50 or 500 nM, low = 1 nM, and no aTc) were distributed into
700 the drug plate. Lowest drug treatment and a lethal dose of chloroquine (200 nM) served as reference
701 controls. Growth inhibition was analysed after 72 h using the Renilla-Glo(R) Luciferase Assay System (ref
702 no E2750 Promega) and the GloMax® Discover Multimode Microplate Reader (Promega), and IC50 values
703 were obtained from corrected dose-response curves using GraphPad Prism (version 8; GraphPad Software). […]
706 CRISPR/Cas9 was used to generate parasites encoding the S234C mutation in exon 2 of PfYRS, as shown
707 in Suppl Figure 6. Two guide RNAs (gRNA1: […] and gRNA2:
708 […]) were selected using Benchling (benchling.com), and cloned into the
709 pDC2-coCas9-gRNA plasmid essentially as described previously (58). A donor template of 645 bp,
710 encompassing the majority of the 708 bp exon 2, was synthesized (ThermoFisher) and cloned into the
711 AatII/EcoRI sites of both the pDC2-coCas9-gRNA1 and pDC2-coCas9-gRNA2 plasmids. In addition to
712 the TCC>TGC (S234C) mutation, additional silent shield mutations were introduced to prevent gRNA-
713 Cas9 complex binding, as shown in Suppl Figure 6. Ring-stage P. falciparum parasites (Dd2 strain) at 10%
714 parasitemia (150 µL of packed cells) were transfected with 50 µg of plasmid DNA using a BioRad Gene
715 Pulser II (310 V, 950 µF), and selected with 5 nM WR99210 (Jacobus Pharmaceuticals) for 8 days, after
716 which culture was continued without drug pressure until transfectants were obtained. Clones of the
717 PfYRSS234C mutant parasites were isolated by limiting dilution and verified by Sanger sequencing.
719 Protein translation assay
720 P. falciparum Cam 3.II_Rev (25) schizont- (43-48 h p.i.) infected RBCs were pre-incubated with inhibitor
Using a modification of a published procedure (14), the
722 cells were labelled with O-propargyl-puromycin (OPP; 4 µM) for 1 h, washed 3x (PBS +3% serum) and
723 then fixed for 10 minutes (4% formaldehyde/0.02% glutaraldehyde in PBS). The click reaction was
724 performed for 1 h in the presence of CuSO4 (0.1 mM), THPTA (0.5 mM) and sodium ascorbate (5 mM) to
725 bring about azide-alkyne cycloaddition to Alexa Fluor 488 azide (0.1 µM). Flow cytometry was performed
726 using the FITC and Cy™5.5 channels to detect the Alexa Fluor 488 and PI, respectively.
729 Cam 3.II_Rev (25) trophozoite-infected RBCs (25-30 h p.i.) were incubated with inhibitor for 3 h at 10%
730 hematocrit and 5% parasitemia. The RBC pellet was washed 3 x in PBS + cOmplete. Cells were centrifuged
731 at 380 x g for 5 min and the pelleted cells lysed by resuspension in PBS + 0.05% saponin for 5 min on ice.

Chain of PfYRSS234C (Q8IAR7 whole entry S234C): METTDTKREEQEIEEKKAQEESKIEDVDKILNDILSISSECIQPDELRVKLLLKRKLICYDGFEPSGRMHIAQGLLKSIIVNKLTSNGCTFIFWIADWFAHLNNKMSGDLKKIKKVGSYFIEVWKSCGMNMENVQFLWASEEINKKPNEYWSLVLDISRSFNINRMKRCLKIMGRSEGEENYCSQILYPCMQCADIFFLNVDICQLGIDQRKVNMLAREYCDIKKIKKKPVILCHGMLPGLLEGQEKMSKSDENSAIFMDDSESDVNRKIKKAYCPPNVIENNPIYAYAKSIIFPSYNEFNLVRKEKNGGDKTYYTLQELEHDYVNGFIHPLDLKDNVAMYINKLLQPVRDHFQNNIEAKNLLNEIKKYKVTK
Chain of PfYRS (Q8IAR7 entry or part of it): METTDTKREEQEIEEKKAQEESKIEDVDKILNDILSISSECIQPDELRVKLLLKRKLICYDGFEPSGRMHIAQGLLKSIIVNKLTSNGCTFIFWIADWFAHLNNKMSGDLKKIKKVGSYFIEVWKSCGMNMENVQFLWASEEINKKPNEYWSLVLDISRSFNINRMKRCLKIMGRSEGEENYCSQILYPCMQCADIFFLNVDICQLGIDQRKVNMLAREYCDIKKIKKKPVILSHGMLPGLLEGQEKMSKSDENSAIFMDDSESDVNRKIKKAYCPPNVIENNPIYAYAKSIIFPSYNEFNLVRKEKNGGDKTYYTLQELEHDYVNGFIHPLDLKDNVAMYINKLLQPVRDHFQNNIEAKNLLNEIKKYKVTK

`Nc1ncnc2c1ncn2[C@@H]1O[C@H](COP(=O)(O)OC(=O)[C@@H](N)Cc2ccc(O)cc2)[C@@H](O)[C@H]1O` [AMP-Tyr]: the Tm was 62.6 ± 0.2 oC in test [1] (PfYRS 2.3 μM, after incubation at 37°C for 3 h); 57.1 ± 0.3 oC in test [2] (PfYRSS234C 2.3 μM, after incubation at 37°C for 3 h); 53.3 ± 0.2 oC in test [3] (HsYRS 2.3 μM, after incubation at 37°C for 3 h). Further, the DTm in test [1] (PfYRS, versus apo) is 12.4 oC; in test [2] (PfYRSS234C, versus apo), 6.5 oC; in test [3] (HsYRS, versus apo), 2.8 oC. The Kd in test [1] (PfYRS, estimated from DSF by empirical correlation of DTm and KD, read-out: Apparent KD*) was 2.2 nM; in test [2] (PfYRSS234C, estimated from DSF by empirical correlation of DTm and KD, read-out: Apparent KD*), 24 nM; in test [3] (HsYRS, estimated from DSF by empirical correlation of DTm and KD, read-out: Apparent KD*), 116 nM.

The IC50 is the concentration needed to halve the response being measured. Take `C[C@H]1[C@@H](O)O[C@@H]2O[C@@]3(C)CC[C@H]4[C@H](C)CC[C@@H]1[C@@]24OO3` [DHA, Dihydroartemisinin]: the IC50 turned out to be 2.9 ± 0.2 nM in test [4], 1.1 ± 0.3 nM in test [5] (high aTc (500 nM)), 1.6 ± 0.5 nM in test [5] (low aTc (1 nM)) and 1.2 ± 0.4 nM in test [5] (no aTc). Moreover, the “Fold change in IC50 (high aTc/ no aTc), PfYRS knockdown line (control compounds)” value in test [5] (high aTc 500 nM) is given as “no change”.
